What was measured:
[1] = tested on: ID8-luc ovarian tumor cells; test: ID8-luc orthotopic syngeneic ovarian isograft model; type: in vivo, C57bl/6 mice; settings: carboplatin alone, 10 mg/kg weekly for three weeks; over 35 days
Protocol: ID8-luc model: Five-week-old C57bl/6 mice (Jackson labs strain 664) were acclimated for one week and injected intraperitoneally with […] luciferase expressing ID8 syngeneic ovarian tumor cells suspended in 200 μL of PBS under Medical College of Wisconsin animal protocol AUA6339. One week after injection, antibodies and/or chemotherapeutic agents were administered intraperitoneally at the indicated doses. Chemotherapeutic doses or vehicle were administered one day before control or therapeutic antibody doses. Imaging and analysis of luciferin radiance was done up to twice weekly on an IVIS Spectrum-CT Imaging System equipped with thermoelectrically-cooled CCD camera. Mice were monitored twice weekly for weight and signs of morbidity. Mice were euthanized after 45 days or upon signs of morbidity. Animal studies were conducted using the standards for humane treatment of animals as described in the U.S. Public Health Service Policy on Humane Care and Use of Laboratory Animals.
With disseminated peritoneal disease being the most common presentation upon recurrence of ovarian carcinoma, we utilized an orthotopic isograft model of disseminated peritoneal ovarian cancer. Human anti-CLPTM1L binding to luciferase-expressing ID8 ovarian tumor cells (ID8-luc) was detected by flow cytometry (FIG. 31A). […] Tumor load was monitored by luciferin luminescence using whole body imaging. […]

SL3 parental xenografts = test: SL3 xenograft model, parental; type: in vivo, NU/J mice; settings: weekly 2.5 mg/kg cisplatin and/or 5 mg/kg 102-5; 24 days post-inoculation
Protocol: (§1) Four-week old female NU/J mice (2019, Jackson Laboratories) were acclimated for 1 week before injection of 0.5×10^6 parental SL3 or 1×10^6 cisplatin-resistant SL3-cis cells subcutaneously into the flank in 200 μL PBS. Tumors were measured with calipers and volumes were calculated by ½ (W×W×L). After tumors had grown to an average of 100 mm^3, mice were separated into groups of 5 mice, each group with 100 mm^3 average tumor sizes. Mice were treated weekly with intraperitoneal doses of PBS control, cisplatin 2.5 mg/kg, and/or 102-5 5 mg/kg in 200 μL of PBS at room temperature beginning on day 6 post-inoculation. Cisplatin treatments were administered 24 hours following antibody treatment. Tumor volume was measured at least weekly. Animal health was monitored daily and animal weights measured at least weekly. All procedures were reviewed and approved by MCW IACUC committee #2 under AUA6339.
(§2) J/NU mice xenografted with SL3 parental or SL3-cis platinum resistant cells were treated weekly with control vehicles, 2.5 mg/kg cisplatin, and/or 5 mg/kg 102-5 anti-CLPTM1L. The effects of cisplatin and those of 102-5 on cisplatin treatment were investigated in this model rather than those of carboplatin since the SL3cis line was developed specifically as a cisplatin resistant line.

[2] = tested on: SL3-cis platinum resistant xenografts; test: SL3 xenograft model, cisplatin resistant; type: in vivo, NU/J mice; settings: weekly 2.5 mg/kg cisplatin and/or 5 mg/kg 102-5; 24 days post-inoculation
Protocol: as §1, §2

[3] = tested on: Caspase-3 cleavage and Akt phosphorylation in SL3cis; test: Western blotting of SL3cis lysates for caspase cleavage and Akt phosphorylation; type: cell-based, human; settings: SL3cis spheroids
Protocol: (A) A2780 apoptotic killing (casp 3/7 live imaging) after 36 hour mAb treatment (scFv clones 102-4a left, 102-5a right) and 24-hour carboplatin treatment. (B) Dose-response to up to 20 μM carboplatin in resistant A2780 cells treated with either control IgG1 or 102-5, relative to 0 carboplatin controls. (C) Kinetic killing assay (live imaging) in A2780 with human anti-CLP™1L scFv and/or 10 μM carboplatin treatment. *p<0.05, **p<0.005, ***p<0.0005. (D) Western blotting and densitometry for Akt and phospho-Akt (T308) in A2780 andA2780cis. […]
Cells were lysed with 100 μL of 1× NP40 lysis buffer containing proteinase inhibitors, sheared 10 times with a 28-gauge needle, spun at 16,000×g for 30 minutes, normalized by protein concentration as determined by the Bradford method, and the supernatant boiled for 5 minutes. Twenty microliters of normalized lysate were resolved by SDS-PAGE on 10% acrylamide gels at 150 volts for 1 hour, transferred by iBlot dry transfer (Life Technologies), blocked for 2 hours with TBST 10% milk, incubated with primary antibodies at 1:1000 in TBST 5% milk at 4C overnight with rocking, washed 3×5 minutes with TBST, incubated with secondary anti-rabbit-HRP (Santa Cruz Biotechnology) or goat anti-human-HRP (Invitrogen MH1715) at 1:10,000 in TBST 5% milk for 2 hours with rocking, washed 5×10 minutes with TBST, and signal analyzed using a Biorad Chemidoc XRS. […]

N.N.O=C([O-])C1(C(=O)[O-])CCC1.[Pt+2] [carboplatin, reference compound]
tumor load [1]: 1.23 fold

N.N.[Cl][Pt][Cl] [cisplatin, reference compound]
tumor growth and volumes (SL3 parental xenografts): significantly inhibited
tumor growth [2]: significantly inhibited tumor growth only in combination therapy with 102-5 anti-CLPTM1L
Akt phosphorylation at threonine 308 [3]: induced by cisplatin treatment
Caspase-3 cleavage ([3]; 16 days of growth): Caspase-3 cleavage was induced

— patent publication US12129305B2, “Targeting CLPTM1L for treatment and prevention of cancer” (The Medical College of Wisconsin, Inc., priority 2018, dated 2024)
